What was measured:
[1] = test system: cervical cancer cell lines (SiHa and CaSki); experiment: Cell growth of manzamine-related compounds; type: cell-based, human
Procedure: (§1) Based on MoIN, the additional manzamine-related compounds such as manzamine D (2), manzamine F (3), 8-hydroxymanzamine A (4), and ircinal A (5) were tested for their biological activities targeting cervical cancer cell lines (SiHa and CaSki).
Cell Growth Kinetics. Cervical cancer cells (1×10^6) or HKc (2×10^5) were plated in 100 mm tissue culture petri dish or 6-well plates. Following overnight incubation, cells were treated with 2 μM or 4 μM concentrations of manzamine A (1) derivatives for different time points (24, 48 and 72 hours). Dimethyl sulphoxide (DMSO) was used as control. The cell proliferation activity was determined by cell counting under the microscope with a hemocytometer using trypan blue staining.

[2] = test system: normal human keratinocytes (HKc); experiment: Cell growth kinetics of normal keratinocytes; type: cell-based; settings: 4 μM stated for compound 4; 48 h and 72 h; vs DMSO control
Procedure: as §1
Generation of Normal Human Keratinocytes (HKc). The generation and processing of normal HKc from de-identified foreskin tissue samples has previously been described in our studies, see Pirisi, L.; Yasumoto, S.; Feller, M.; Doniger, J.; DiPaolo, J. A. J. Virol. 1987, 61, 1061-1066, and was implemented with the following modifications: dispase was used in lieu of collagenase, and a trypsinization step was added to release the epidermal cells. Briefly, to generate normal HKc primary cultures, the foreskin tissue, free of subcutaneous tissue, was placed in 10% dispase in phosphate buffer saline (PBS) and incubated overnight at 37° C. The next day, the epidermis was separated from the dermis, and processed mechanically by shredding the tissue into smaller pieces that were then treated with Trypsin/EDTA for 10 minutes at 37° C. Following the addition of fetal bovine serum (10%) to stop the trypsin action, cells were collected by centrifugation and plated in keratinocytes serum free medium (KSFM).
Cell Growth Kinetics. […] The cell proliferation activity was determined by cell counting under the microscope with a hemocytometer using trypan blue staining.

**Q.** Which results are given for Oc1cccc2c1[nH]c1c(C3=C[C@@]4(O)CC/C=C\CCCCN5CC[C@@H]3[C@]3(C[C@@H]6/C=C\CCCCN6[C@H]34)C5)nccc12 [8-hydroxymanzamine A]?
**A.** effect on cervical cancer cell growth [1]: showed inhibition; cell growth kinetics of normal HKc [2]: inhibited significantly

**Q.** For O=CC1=C[C@@]2(O)CC/C=C\CCCCN3CC[C@@H]1[C@]1(CC4/C=C\CCCCN4[C@H]12)C3 (some centres unmarked) [ircinal A], which “effect on cervical cancer cell growth” value [1] is on record?
**A.** did not reveal any effect

**Q.** O[C@]12C=C(C3NCCc4c3[nH]c3ccccc43)[C@@H]3CCN(CCCC/C=C\CC1)C[C@@]31C[C@@H]3/C=C\CCCCN3[C@H]12 (some centres unmarked) [manzamine D] was tested. Which “effect on cervical cancer cell growth” value [1] did it give?
**A.** did not reveal any effect

**Q.** With O=C1CCCN2[C@@H](CC1)C[C@]13CN4CCCC/C=C\CC[C@](O)(C=C(c5nccc6c5[nH]c5c(O)cccc56)C1CC4)[C@H]23 (some centres unmarked) [manzamine F] as the molecule, how does the “effect on cervical cancer cell growth” value [1] read?
**A.** did not reveal any effect

From patent US12023330B2, “Use of manzamines as antiproliferative agent” (priority 2020, dated 2024)
